Laboratory results: publication PMC7641245 (Chemical communications (Cambridge, England), 2020)

Biological target: T1, hIAPP (human islet amyloid polypeptide) (Homo sapiens, UniProt P10997)
T1 sequence (P10997 34-70): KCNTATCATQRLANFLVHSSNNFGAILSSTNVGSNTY
Assay: isothermal titration calorimetry
Type: binding
Settings: hIAPP fibers; no interaction seen by ITC with hIAPP monomers

Kd: ~7 µM
Substance: CurDAc
